# Patent US12345641B2, “Fluorescence quenching immunoassay” (IDEXX Laboratories, Inc., priority 2020, dated 2025)
# Columns and labels:
# antibody to SDMA = assay: Fluorescence decrease of tracer A3 on complexing with anti-SDMA antibody conjugated to BHQ10 (FIG. 23); assay type: binding
# From the text: The decrease in fluorescence of a fluorescent tracer when it forms a complex with a binding partner that is conjugated to a quencher is a function of the equivalents of quencher molecules that are conjugated to the binding partner. The more quencher molecules conjugated to the binding partner, the greater the decrease in fluorescence. This is depicted in FIG. 23 as a plot of fluorescence vs. ratio of antibody:fluorescent tracer for antibody that is conjugated to 2, 4, 6, and 8 BHQ10 quencher molecules.
# [1] = Absorption and emission spectra of fluoresceins and SDMA conjugates (Example 33); assay type: physicochemical; conditions: PBS buffer
# From the text: The maximum absorption of fluorescein (Fl) in PBS buffer is at 489 nm and the maximum fluorescence emission is at 515 nm. When the fluorescein molecule is conjugated with an SDMA molecule via a —CH2NH— linker (i.e., to provide SDMA-Fl), its maximum absorption and emission are shifted to 495 nm and 525 nm, respectively. When the fluorescein molecule is substituted by fluorine at the 2′ and 7′ positions (i.e., to provide DFF) there is no any change in the maximum absorption and emission compared to unsubstituted fluorescein. When the fluorescein molecule is substituted by chloride at the 2′ and 7′ positions (i.e., to provide DCF) the maximum absorption and emission are red-shifted to 500 nm and 525 nm, respectively. Also conjugating DFF or DCF to SDMA via a —CH2NH— linker (i.e., to provide SDMA-DFF and SDMA DCF, respectively) results in the maximum absorption and emission being red-shifted. The maximum absorption and emission wavelengths of fluorescein (FL), 2′,7′-difluorofluorescien (DFF), 2′,7′-dichlorofluorescien (DCF), and their conjugates with SDMA via a —CH2NH— linker (i.e., SDMA-Fl (i.e., structure A3), SDMA-DFF, and SDMA-DCF) are listed in the Table provided below. The absorption spectra of DFF, SDMA-DFF, DCF, SDMA-DCF, Fl, and SDMA-FL are depicted in FIG. 25A and the emission spectra of SDMA-DFF, SDMA-DCF, Fl, and SDMA-FL are depicted in FIG. 25B.
# anti-SDMA antibody = assay: Fluorescence quenching of SDMA tracers by anti-SDMA antibody or antibody-BHQ10 (Example 34); assay type: binding; conditions: for fluorescence quenched by adding anti-SDMA antibody: antibody not conjugated to a quencher
# Protocol: Solutions of anti-SDMA antibody or anti-SDMA antibody conjugated to BHQ10 (4 eq.) in phosphate buffered saline (PBS) were prepared at concentrations of 0, 0.25, 0.5, 1, 2, 4, 8, and 16 μM (antibody solution). Solutions of an SDMA fluorescent tracer (i.e., SDMA-Fl, SDMA-DFF, or SDMA-DCF) in PBS were prepared at a concentration of 100 nM (tracer solution). 50 μL of antibody solution and 50 μL of tracer solution were combined on a 96-well UV plate and incubated for 30 min. at room temperature. […] The results are depicted in FIGS. 26 and 27.
# [2] = tested on: anti-penicillin polyclonal antibody; assay: Fluorescence of beta lactam-fluorescein conjugates with anti-penicillin antibody (Example 25); assay type: binding; conditions: tracer and antibody 200 nM
# Protocol: Beta lactam antibiotics conjugated to fluorescein (i.e., AMO-FITC, AMO-F, AMP-F, and CEF-F) in PBS (400 nM, 100 μL) were mixed with either anti-penicillin or anti-cefotaxime polyclonal antibody (400 nM, 100 μL, commercially available from Novus Biologicals, LLC of Centennial, CO) in the absence of and in the presence of free beta-lactam antibiotic (ampicillin (400 nM) was added to AMP-F and cefotaxime (400 nM) was added to CEF-F) in a 96 well black assay plate. […] The solutions were incubated at room temperature for 5 min and the fluorescence intensity measured.
# [3] = tested on: Cy5 conjugated antibody (Ab-Cy5, anti-T4-Mab); assay: Fluorescence quenching of T4-F by Ab-Cy5 (Example 23); assay type: binding
# Protocol: T4-F was dissolved in DMSO (1 mM) and diluted with PBS to provide a stock solution (4 μM). A series of PBS solutions of Cy5 conjugated antibody (Ab-Cy5, made as in Example 12) having Ab-Cy5 concentrations ranging from 0 to 400 nM were prepared by serial dilution. In the wells of a 96 well black assay plate was combined T4-F in PBS (5 μL) and a serially diluted Ab-Cy5 solution (95 μL) and the plate shaken for 30 min at room temperature.
# [4] = tested on: anti-sulfadimethoxine monoclonal antibody; assay: Fluorescence of SDM-F or SDM-Su-F with anti-sulfadimethoxine monoclonal antibody (Example 26); assay type: binding
# Protocol: SDM-F or SDM-Su-F in PBS (400 nM, 100 μL) was mixed with anti-sulfadimethoxine monoclonal antibody (400 nM, 100 μL, commercially available from Genway Biotech of San Diego, CA) in the absence of and the presence of sulfadimethoxine (SDM) (400 nM). The resulting solutions were incubated at room temperature for 5 min and the fluorescence intensity then measured.
# anti-T4 antibody = assay: Maximum percentage fluorescence quenching of T2-F, T3-F, T4-F by anti-T4 antibody with and without quencher label (Example 27 table); assay type: binding
# Protocol: In another experiment, tracer T2-F, T3-F, or T4-F was dissolved in DMSO to provide a DMSO solution at a tracer concentration of 1 mM. The DMSO solution was then diluted with phosphate buffered saline (“PBS”) to provide a stock solution of each tracer at a concentration of 10 μM. Monoclonal anti-T4-Mab or anti-T4-Mab conjugated to a quencher (Cy3-Ab, IRdyeQC1-Ab, Cy5-Ab, BHQ1-Ab) were serially diluted in PBS to provide solutions having an Anti-T4-Mab or anti-T4-Mab conjugated to quencher at concentration ranging from 0 to 2 μM. In a 96 well black assay plate containing the serially diluted Anti-T4-Mab or anti-T4-Mab conjugated to quencher (95 μL) was added the tracer T2-F, T3-F, or T4-F solution (5 μL), mixed well, and incubated for 30 min and the fluorescence intensities then recorded at an excitation wavelength of 485 nm and an emission wavelength of 520 nm. The results of maximum percentage fluorescence quenching for different tracers and quencher-modified antibodies are provided in the following Table: […]
# [5] = tested on: Monoclonal anti-CysB antibody (7C2); assay: Fluorescence quenching of canine CysB peptide-Fl/DFF conjugates by anti-CysB Mab or Mab-BHQ10 (Example 51); assay type: binding, mouse; conditions: Ab/Conjugate ratio = 2/1
# Protocol: CysB peptide-fluorescein (Fl) or -difluorofluorescein (DFF) conjugates were dissolved in DMSO (0.5 mM) and diluted with Tris Buffer ([…] at pH8.0) to provide a stock solution (100 nM). Monoclonal anti-CysB antibody (7C2, raised against a peptide having the amino acid sequence of SEQ ID NO: 14) (8 mg/ml) was serially diluted in PBS buffer to provide solutions having an Anti-CysB-Mab concentration ranging from 0 to 800 nM in Tris buffer (50 mM at pH 8.0 with 0.5% sarkosyl (sodium lauroyl sarcosinate)). In a 96-well black assay plate containing the serially diluted Anti-CysB-Mab solution (50 μL) was added the peptide-Fl or peptide-DFF solution (50 μL), mixed well, incubated for 30 min and the fluorescence intensities recorded. The results are provided in FIG. 38, 39, 40, and Table 1.
# anti-CysB Mab = assay: Peptide/full length canine CysB protein dose response in Tris buffer and serum (Example 51); assay type: binding, mouse; conditions: peptide 0 to 3200 nM added to mixture of antibody and P6-Fl or P6-DFF, Tris buffer
# Protocol: A mixture of CysB P6-Fl or P6-DFF in Tris buffer with 0.1% Tween 20 (200 nM, 25 μL) and anti-Cys-Mab in Tris buffer with 0.1% Tween 20 (400 nM, 25 μL) was incubated at room temperature for 30 min in the wells of a 96 well black assay plate. A series of CysB peptides P6, P7, and P14 standard solutions having peptide concentrations ranging from 0 to 3200 nM (50 μL) were then added to the mixtures of the P6-Fl or P6-DFF and anti-CysB Mab in Tris Buffer. The plate was then incubated for 30 min at room temperature and the fluorescence intensities recorded at an excitation of 485 nm and an emission of 520 nm. The results are shown in FIG. 43, FIG. 44, FIG. 45, and FIG. 46.
compound,measurement,setting,value
C/N=C(\NC)NCCC[C@@H](N)C(=O)NCc1c(O)ccc2c(-c3ccccc3C(=O)O)c3ccc(=O)cc-3oc12 (stereo in doubt) [SDMA-Fl],maximum decrease in fluorescence,antibody to SDMA; antibody conjugated to 2 equivalents of BHQ10,about 50%
same,maximum decrease in fluorescence,antibody to SDMA; antibody conjugated to 8 equivalents of BHQ10,about 70%
same,Max Absorption,[1],495 nm
same,Max Emision,[1],525 nm
same,fluorescence quenched by adding anti-SDMA antibody,anti-SDMA antibody,about 30%
"CC1(C)SC2C(NC(=O)C(NCc3c(O)ccc4c(-c5ccccc5C(=O)O)c5ccc(=O)cc-5oc34)c3ccc(O)cc3)C(=O)N2C1C(=O)O (centres unmarked) [AMO-F, Amoxicillin-Fluorescein]",fluorescence quenching by anti-penicillin antibody,[2],quenched
CC1(C)SC2C(NC(=O)C(NC(=S)Nc3ccc(-c4c5ccc(=O)cc-5oc5cc(O)ccc45)c(C(=O)O)c3)c3ccc(O)cc3)C(=O)N2C1C(=O)O (centres unmarked) [AMO-FITC],fluorescence quenching by anti-penicillin antibody,[2],not quenched
"CC1(C)SC2C(NC(=O)C(NCc3c(O)ccc4c(-c5ccccc5C(=O)O)c5ccc(=O)cc-5oc34)c3ccccc3)C(=O)N2C1C(=O)O (centres unmarked) [AMP-F, Ampicillin-Fluorescein]",fluorescence quenching by anti-penicillin antibody,[2],quenched
"CCN1/C(=C/C=C/C=C/C2=[N+](CCCCCC(=O)O)c3ccc(S(=O)(=O)O)cc3C2(C)C)C(C)(C)c2cc(S(=O)(=O)[O-])ccc21 [Cy5, reference compound]",quenching of T4-F fluorescence by Cy5 alone (not conjugated to Anti-T4-Mab),[3],did not quench fluorescence
"COc1cc(NS(=O)(=O)c2ccc(NCc3c(O)ccc4c(-c5ccccc5C(=O)O)c5ccc(=O)cc-5oc34)cc2)nc(OC)n1 [SDM-F, Sulfadimethoxine-Fluorescein]",amount of quenching compared to SDM-Su-F,[4],greater amount of quenching
same,fluorescence quenching by anti-sulfadimethoxine monoclonal antibody,[4],quenched
"COc1cc(NS(=O)(=O)c2ccc(NC(=O)CCC(=O)NCc3c(O)ccc4c(-c5ccccc5C(=O)O)c5ccc(=O)cc-5oc34)cc2)nc(OC)n1 [SDM-Su-F, Sulfadimethoxine-Succinic-Fluorescein]",fluorescence quenching by anti-sulfadimethoxine monoclonal antibody,[4],quenched
CNC(=NCCCC(N)C(=O)NCc1c(O)c(F)cc2c(-c3ccccc3C(=O)O)c3cc(F)c(=O)cc-3oc12)NC (centres unmarked) [SDMA-DFF],Max Absorption,[1],437 nm
same,Max Emision,[1],525 nm
same,quenching efficiency in comparison with SDMA-Fl,anti-SDMA antibody; anti-SDMA antibody conjugated to BHQ10 (4 eq.),slightly greater
same,fluorescence quenched by adding anti-SDMA antibody,anti-SDMA antibody,about 50%
O=C(O)c1ccccc1-c1c2ccc(=O)cc-2oc2c(CNC(Cc3cc(I)c(Oc4cc(I)c(O)c(I)c4)c(I)c3)C(=O)O)c(O)ccc12 (centres unmarked) [T4-F],quenching efficiency,[3]; ratio of T4-F: Ab-Cy5 of about 1:1,about 70%
same,"Percentage of fluorescence quenching, BHQ1-Ab",anti-T4 antibody; anti-T4-Mab conjugated to BHQ1,No
same,"Percentage of fluorescence quenching, Cy5-Ab",anti-T4 antibody; anti-T4-Mab conjugated to Cy5,31%
same,"Percentage of fluorescence quenching, Ab",anti-T4 antibody; anti-T4-Mab without quencher,No
"GHDELAYF [P7, canine CysB peptide]","Percentage Fluorescence Quenching, DFF Conjugate At 5-Position",[5]; CysB peptide conjugated to 5-position of difluorofluorescein,5%
same,"Percentage Fluorescence Quenching, F1 Conjugate At 5-Position",[5]; CysB peptide conjugated to 5-position of fluorescein,5%
same,fluorescence intensity as a function of CysB peptide concentration,anti-CysB Mab,a dose response was observed
